Measurements as given in the supplement of paper PMC10307832.

Assays:
Experiment in all cases: relative viability (nuclei count vs DMSO), 5 days (fraction); higher = more cells survive
[1] = compound: CC1=CC(=CC=C1)NC2=NC(=CS2)C3=CC=NC=C3 + Cc1nc(NC(=O)N2CCC[C@H]2C(N)=O)sc1-c1ccnc(C(C)(C)C(F)(F)F)c1 [Alpelisib] (partner 2 µM)
How it was run: (§1)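 Medians of duplicate plates are given as relative viability. That measure is the nuclei count in treated wells divided by the count in vehicle wells. Counts were taken on 4× images of lung cancer cell lines in 1536-well plates, 5 days after pin-tool dosing the day after seeding with one drug alone or a fixed anchor-drug dose plus five library-drug doses (not always all listed) in √10 steps.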

[2] = compound: Cc1ccc(NC(=O)c2ccc(CN3CCN(C)CC3)cc2)cc1Nc1nc(-c2cccnc2)cs1 [Masitinib] + Nc1nc2[nH]cc(CCc3ccc(C(=O)N[C@@H](CCC(=O)O)C(=O)O)cc3)c2c(=O)[nH]1 [Pemetrexed] (partner 0.2 µM)
How it was run: as §1

[3] = compound: CC1=CC(=CC=C1)NC2=NC(=CS2)C3=CC=NC=C3
How it was run: (§2)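 For viability, nuclei in each treated well were divided by nuclei in vehicle wells and the median across plates was taken. Lung cancer cell lines in 1536-well plates were pinned with five library-drug doses (not always all listed) spaced by √10, cultured 5 days without medium change, and imaged at 4× after Hoechst staining, with plates passing only at control CV below 25% and at least one doubling.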

[4] = compound: Cc1ccc(NC(=O)c2ccc(CN3CCN(C)CC3)cc2)cc1Nc1nc(-c2cccnc2)cs1 [Masitinib]
How it was run: as §2

Cell Line	relative viability ([1]; first compound 0.08 µM)	relative viability ([1]; first compound 0.253 µM)	relative viability ([1]; first compound 0.8 µM)	relative viability ([1]; first compound 2.53 µM)	relative viability ([1]; first compound 8 µM)	relative viability ([2]; first compound 0.01 µM)	relative viability ([2]; first compound 0.03162 µM)	relative viability ([2]; first compound 0.1 µM)	relative viability ([2]; first compound 0.3162 µM)	relative viability ([2]; first compound 1 µM)	relative viability ([3]; 0.08 µM)	relative viability ([3]; 0.253 µM)	relative viability ([3]; 0.8 µM)	relative viability ([3]; 2.53 µM)	relative viability ([3]; 8 µM)	relative viability ([4]; 0.01 µM)	relative viability ([4]; 0.03162 µM)	relative viability ([4]; 0.1 µM)	relative viability ([4]; 0.3162 µM)	relative viability ([4]; 1 µM)
NCI-H1355	0.719	0.512	0.483	0.51	0.587	0.9	0.92	1.1	0.853	1.08	0.769	0.73	0.768	0.694	0.65	0.813	0.723	0.851	0.762	0.966
NCI-H1395	0.838	0.909	1.23	1.01	0.992	1.02	0.872	1.02	0.965	0.717	0.765	0.734	0.898	0.729	0.766	0.882	0.965	1.04	0.967	0.85
NCI-H1437	1.03	0.968	0.885	0.922	0.763	0.312	0.355	0.37	0.325	0.311	0.976	0.882	0.938	0.874	0.856	0.838	0.93	1.06	0.986	0.85
NCI-H1563	0.881	0.94	0.968	0.98	0.828	0.714	0.741	0.835	0.729	0.701	0.917	1.04	0.954	0.983	0.838	0.9	0.975	0.983	0.931	0.937
NCI-H1651	0.973	0.992	0.967	0.944	0.959	0.565	0.62	0.527	0.632	0.588	0.95	0.918	1.03	0.87	0.963	0.899	0.97	0.954	0.988	0.971
NCI-H1666	0.44	0.597	0.447	0.472	0.298	0.943	0.842	0.885	0.708	0.77	0.866	0.83	0.818	0.705	0.688	0.779	0.944	0.939	0.846	0.961
NCI-H1734	0.615	0.683	0.672	0.757	0.687	0.408	0.465	0.396	0.376	0.404	0.864	0.952	1.03	0.988	0.96	0.957	1.08	1.06	0.976	0.942
NCI-H1755	0.869	0.856	0.826	0.815	0.548	0.357	0.411	0.427	0.446	0.463	0.926	0.942	0.866	0.857	0.697		0.935	0.886	1.02	0.935
